Data from publication PMC4237514, “Novel amino-β-lactam derivatives as potent cholesterol absorption inhibitors” (European Journal of Medicinal Chemistry, 2014).

What was measured:
MDCKII cells = assay: MTT cytotoxicity assay in MDCKII wild type cells; format: cell-based; conditions: 72 h
Experimental: Cytotoxicity of amino alcohols 5, 6 and their diastereoisomeric mixture 5/6 was analyzed using MTT cell proliferation assay and the LC50 values were determined in MDCKII wild type, hNPC1L1/MDCKII, and HepG2 cells (Table 2). MDCKII cells stably expressing human Niemann-Pick C1-like protein 1 (hNPC1L1/MDCKII) (Figure S1) are a pharmacologically validated system for investigating NPC1L1-mediated cholesterol uptake. The LC50 values were higher than 100 μM and considered nontoxic in all three cell lines. […] In addition, we tested the in vitro cytotoxicity of ezetimibe 1 and compounds 5, 6, and 5/6 (70:30) in combination with micelles and found all LC50 values to be above 100 μM (Figure S2).
Madin–Darby Canine Kidney II (MDCKII) cells, MDCKII cells stably expressing human NPC1L1 (hNPC1L1/MDCKII), and human HepG2 liver cells were maintained in DMEM (Dulbecco's Modified Eagle Medium, Invitrogen, USA) containing 100 units/mL penicillin and 100 μg/mL streptomycin supplemented with 10% FCS (Sigma–Aldrich, Germany). The cells were grown at 37 °C in a humidified 5% CO2 incubator. Stable transfection of MDCKII cells with human NPC1L1 protein was performed using Lipofectamine LTX (Invitrogen, USA) according to the manufacturer's protocol. Selection with 1 mg/mL G418 (Sigma–Aldrich, Germany) was started 2 days after transfection. The concentration of G418 was decreased to 500 μg/mL after 14 days. Stably transfected cells were maintained in DMEM containing 100 units/mL penicillin and 100 μg/mL streptomycin supplemented with 10% FCS and 500 μg/mL G418.
MDCKII, hNPC1L1/MDCKII, and HepG2 cells were seeded in 96-well microtiter plates on day 0 at densities of 3000 cells/well. On day 1, tested compounds (73 mM stock solution in DMSO) were added in five consecutive 10-fold dilutions (10^−8 to 10^−4 mol/L) and incubated for 72 h. Cytotoxicity of the compounds was assessed on day 4 by the MTT cell proliferation assay (Sigma–Aldrich, Germany) which detects mitochondrial dehydrogenase activity in viable cells. The results are expressed as LC50 and the values for each compound were calculated from dose–response curves using linear regression analysis. Each concentration was tested in quadruplicate in three independent experiments. Toxicity of the compounds in combination with micelles was also tested using the same method. MDCKII and hNPC1L1/MDCKII were seeded in 96-well microtiter plates (150 μL medium/well) at a density of 2 × 10^5 cells/mL medium 24 h before the experiment. Micelles were prepared according to the modified method reported by Field et al.. In brief, 0.25 mM oleic acid, 50 μM cholesterol, 10 μM compactin, 50 μM mevalonate, 5 mM Na-taurocholate (Sigma–Aldrich, Germany) in DMEM/10% FCS were mixed and sonicated. Following the micellar formation, compounds 1, 5, 6, and 5/6 (70:30) (73 mM stock solution in DMSO) were added to the medium and vortexed to obtain the final concentrations of the compounds (25, 50, 100, 150, 200 μM) and applied to the cells for 1 h. Thereafter, cytotoxicity was determined using the MTT assay.

MDCKII wildtype cells = assay: In vitro [3H]cholesterol uptake assay in MDCKII wildtype cells; format: cell-based, Canine; conditions: Figure S3
Experimental: Medium A contained DMEM plus 100 units/mL penicillin and 100 μg/mL streptomycin supplemented with 5% lipoprotein-deficient serum (density > 1.21 g/mL, prepared from FCS by ultracentrifugation). Cholesterol Replenishing Medium (Medium B) was prepared according to the modified method reported by Field et al.. In brief, 0.25 mM oleic acid, 50 μM free cholesterol, 10 μM compactin, 50 μM mevalonate, 5 mM Na-taurocholate (Sigma–Aldrich, Germany), and [^3H]cholesterol (0.18 μCi/mL medium, [1,2–3H(N)] cholesterol, 1 mCi/mL (ARC Inc., USA)) in Medium A were mixed and sonicated. Following the micellar formation, compounds 1, 5, 6, 5/6 (70:30), and 6/5 (85:15) (73 mM stock solution in DMSO) were added to Medium B and vortexed to obtain the final concentrations (10, 30, 60, 90, 120, 150, 200 μM).
MDCKII wildtype and hNPC1L1/MDCKII cells were seeded in 24-well plates at a density of 5 × 10^5 cells/mL medium (500 μL medium/well) in Medium A 24 h before the treatment. […] Cells were lysed and radioactivity in the lysate (100 μL) was determined by liquid scintillation counting. Protein concentrations of the lysates were determined with the DC Protein Assay (Bio-Rad, USA). The results were calculated as cpm/mg protein and expressed as percentage of inhibition compared to untreated cells. […]

O=C1[C@H](CC[C@H](O)c2ccc(F)cc2)[C@@H](c2ccc(O)cc2)N1c1ccc(F)cc1 [Compound 1, ezetimibe, reference compound]
LC50, MDCKII (MDCKII cells): no toxicity
effect on cholesterol uptake (MDCKII wildtype cells): no effect
